Reference: US8815919B2, “Oxadiazole derivatives” (Merck Serono SA, priority 2009, dated 2014)
Counter-ions that a name gives are not always drawn. Like-named read-outs stand apart in the source and are kept apart here.

Legend:
[1] = target: T1, S1P1 (Homo sapiens, UniProt P21453); experiment: S1P1 internalization assay in S1P1-U2OS cells (S1P1-EGFP), cell imaging; type: cell-based; design: host or cells: U2OS (human bone osteosarcoma epithelial cells), CMV promoter, geneticin selection; conditions: 1 hour incubation
Method in brief: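 U2OS cells stably expressing human S1P1-EGFP, plated overnight in 1% FCS medium, then serum-starved 2 h in 0.1% fatty-acid-free BSA before 1 h compound exposure at 37 °C. After PFA fixation and Hoechst staining, internalization imaged as EGFP spot count per nucleus.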
Target sequence in this assay (P21453 whole entry): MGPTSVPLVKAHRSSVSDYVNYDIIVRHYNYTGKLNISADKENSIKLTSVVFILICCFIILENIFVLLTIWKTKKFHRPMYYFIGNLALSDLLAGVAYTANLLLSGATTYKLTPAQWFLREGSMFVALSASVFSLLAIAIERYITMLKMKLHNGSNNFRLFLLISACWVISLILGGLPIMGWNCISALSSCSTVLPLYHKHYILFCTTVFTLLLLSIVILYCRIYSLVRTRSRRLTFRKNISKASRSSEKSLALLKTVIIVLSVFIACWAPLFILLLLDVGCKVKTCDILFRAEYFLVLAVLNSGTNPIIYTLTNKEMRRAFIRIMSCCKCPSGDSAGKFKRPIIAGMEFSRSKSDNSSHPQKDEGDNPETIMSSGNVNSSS

[2] = target: T1, S1P1; experiment: 35S-GTPγS binding on membranes of CHO cells expressing S1P1; type: biochemical; conditions: read-out: S1P1/GTPG EC50
Protocol: (§1) Membranes were prepared from CHO cells expressing S1P1 or S1P3 for use in ligand and […] binding studies. Cells were suspended in 50 mM TRIS, pH 7.4, 2 mM EDTA, 250 mM Sucrose (buffer A) and 1× Complete protease inhibitor cocktail (Roche), and disrupted at 4° C. by N2 decompression using a cell disruption bomb (Parr Instrument). Following centrifugation at 1000 RPM for 10 min at 4° C., the supernatant was diluted (2×) in buffer A and centrifuged again at 19000 RPM for 75 min at 4° C. The pellet was then suspended in 10 mM HEPES, pH 7.4, 1 mM EDTA, 250 mM Sucrose (Buffer B), and 1× Complete EDTA-free protease inhibitor cocktail and homogenized using a potter. Membranes were flash frozen in liquid N2 and stored at −80° C.
(§2) Membranes (1 to 10 μg protein) prepared as described above, were incubated in 96-well Scintiplates (PerkinElmer) with test compounds diluted in DMSO, in 140 μl of 20 mM HEPES, pH 7.4, 10 mM MgCl2, 2 μg/well Saponin, 0.2% fatty acid free BSA (Assay buffer), 125 mM NaCl and 1.5 μM GDP. The assay was initiated with the addition of 60 μl of 1.5 nM [35S]-GTPγS (1100 Ci/mmol; GE Healthcare) in assay buffer. After 60 min incubation at 30° C. on a shaker, plates were centrifuged for 10 min at 2000 RPM. Supernatant was discarded and membrane bound radioactivity was measured on a PerkinElmer 1450 MicroBeta counter. Triplicate samples were averaged and expressed as % response relative to S1P activation in absence of compound (n=2).
(§3) The “potency” or the “activity” of the compounds is determined by the EC50 values as evaluated in the above described 35S-GTPγS binding assay.
Target sequence in this assay (P21453 whole entry, species assumed): as the sequence (P21453 whole entry) above

[3] = target: T2, S1P3 (Homo sapiens, UniProt Q99500); experiment: Receptor binding assay, [33P]sphingosine 1-phosphate competition, S1P3 membranes, WGA SPA beads
Method in brief: (§4)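 Competition of [33P]S1P ([…]) on CHO cell membranes with WGA SPA beads in 50 mM HEPES pH 7.5, 5 mM MgCl2, 100 mM NaCl, 0.4% fatty acid-free BSA; 60 min at RT. Triplicates normalised to total binding and nonspecific binding (1000-fold excess unlabeled S1P).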

[4] = target: T2, S1P3; experiment: 35S-GTPγS binding on membranes of CHO cells expressing S1P3; type: biochemical; conditions: read-out: S1P3/GTPG EC50
Protocol: as §1, §2, §3

[5] = target: T1, S1P1; experiment: Receptor binding assay, [33P]sphingosine 1-phosphate competition, S1P1 membranes, WGA SPA beads
Method in brief: as §4
Target sequence in this assay (P21453 whole entry, species assumed): as the sequence (P21453 whole entry) above

[6] = system: lymphocytes; experiment: Model of S1P agonists-induced lymphopenia in mice; type: in vivo; conditions: oral
Protocol: (§5) Female C57BL/6 mice (Elevage Janvier) (8 week old) receive S1P agonists by oral route. Blood is sampled in heparinized (100 IU/kg, ip) mice by intracardiac or retroorbital puncture under isoflurane anesthesia 2 to 120 hrs after drug treatment. The white blood cells (lymphocytes and neutrophils) are counted using a Beckman/Coulter counter. The quality of blood sampling is assessed by counting erythocytes and platelets.

[7] = Pharmacokinetics in mouse (PK parameters from lymphopenia study); type: in vivo; conditions: 30 mpk
Protocol: as §5
Pharmacokinetics Data: • The pharmacoinetic properties of compound of example 20, N-(3-fluoro-5-{5-[2-(methoxymethyl)-2′-methylbiphenyl-4-yl]-1,2,4-oxadiazol-3-yl}benzyl)-N-methylglycine, hydrochloride salt, are the following: […]

[8] = 96 well-plate, read-out: S1P3 binding Ki (M) (96 well-plate)
[9] = 384 well-plate, read-out: S1P3 binding Ki (M) (384 well-plate)
[10] = 96 well-plate, read-out: S1P1 binding Ki (M) (96 well-plate)
[11] = female, C57BL/6, plasma, po, 30 mg/kg
[12] = 384 well-plate, read-out: S1P1 binding Ki (M) (384 well-plate)

T2 sequence (Q99500 whole entry, species assumed): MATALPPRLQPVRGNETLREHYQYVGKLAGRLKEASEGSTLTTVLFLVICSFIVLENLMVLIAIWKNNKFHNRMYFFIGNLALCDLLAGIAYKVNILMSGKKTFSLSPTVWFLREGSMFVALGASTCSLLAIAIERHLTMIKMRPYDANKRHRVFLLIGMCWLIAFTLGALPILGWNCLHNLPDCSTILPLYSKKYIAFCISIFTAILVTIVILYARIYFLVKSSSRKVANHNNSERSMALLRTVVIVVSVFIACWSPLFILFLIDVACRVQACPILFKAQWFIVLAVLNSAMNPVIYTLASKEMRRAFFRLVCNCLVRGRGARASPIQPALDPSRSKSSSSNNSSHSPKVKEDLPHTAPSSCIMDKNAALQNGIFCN

SMILES	melting point	EC50 [1]	EC50 [2]	Ki [3, 8]	Ki [3, 9]	EC50 [4]	Ki [5, 10]	other results
COC(C)c1cc(-c2nc(-c3ccc(CN(C)CC(=O)O)cc3)no2)ccc1-c1ccccc1C (stereo not drawn) (as salt: hydrochloride) (hydrate or solvate) [Example 140, N-(4-{5-[2-(1-methoxyethyl)-2′-methylbiphenyl-4-yl]-1,2,4-oxadiazol-3-yl}benzyl)-N-methylglycine, hydrochloride salt]	179 to 181 °C	–	–	–	–	–	–	–
COCc1cc(-c2nc(-c3cccc(CN(C)CC(=O)O)c3)no2)ccc1-c1cccc(F)c1C (as salt: hydrochloride) [Example 35, N-(3-{5-[3′-fluoro-2-(methoxymethyl)-2′-methylbiphenyl-4-yl]-1,2,4-oxadiazol-3-yl}benzyl)-N-methylglycine, hydrochloride salt]	216 to 218 °C	–	–	–	–	–	–	–
COCc1cc(-c2nc(-c3cccc(CN(C)CC(=O)O)c3)no2)ccc1-c1ccc(F)cc1C (as salt: hydrochloride) [Example 36, N-(3-{5-[4′-fluoro-2-(methoxymethyl)-2′-methylbiphenyl-4-yl]-1,2,4-oxadiazol-3-yl}benzyl)-N-methylglycine, hydrochloride salt]	214 to 216 °C	–	–	–	–	–	–	–
COCc1cc(-c2nc(-c3cccc(CN(C)CC(=O)O)c3)no2)ccc1-c1cc(F)ccc1C (as salt: hydrochloride) [Example 37, N-(3-{5-[5′-fluoro-2-(methoxymethyl)-2′-methylbiphenyl-4-yl]-1,2,4-oxadiazol-3-yl}benzyl)-N-methylglycine, hydrochloride salt]	177 to 183 °C	–	–	–	–	–	–	–
COCc1cc(-c2nc(-c3ccc(CN(C)CC(=O)O)cc3)no2)ccc1-c1ccccc1Cl (as salt: hydrochloride) [Example 118, N-(4-{5-[2′-chloro-2-(methoxymethyl)biphenyl-4-yl]-1,2,4-oxadiazol-3-yl}benzyl)-N-methylglycine, hydrochloride salt]	194 to 200 °C	–	–	–	–	–	–	–
COCc1cc(-c2nc(-c3ccc(CN(C)CC(=O)O)c(F)c3)no2)ccc1-c1ccccc1Cl (as salt: hydrochloride) [Example 119, N-(4-{5-[2′-chloro-2-(methoxymethyl)biphenyl-4-yl]-1,2,4-oxadiazol-3-yl}-2-fluorobenzyl)-N-methylglycine, hydrochloride salt]	181 to 188 °C	–	–	–	–	–	–	–
Cc1cc(-c2nc(-c3ccc(CN(C)CC(=O)O)cc3)no2)ccc1-c1ccccc1C(F)F (as salt: hydrochloride) [Example 137, N-(4-{5-[2′-(difluoromethyl)-2-methylbiphenyl-4-yl]-1,2,4-oxadiazol-3-yl}benzyl)-N-methylglycine, hydrochloride salt]	229 to 234 °C	–	–	–	–	–	–	–
CC1CCCCN1c1ccc(-c2nc(-c3cccc(CN(C)CC(=O)O)c3)no2)cc1C(F)(F)F (stereo not drawn) [Example 13, N-methyl-N-(3-{5-[4-(2-methylpiperidin-1-yl)-3-(trifluoromethyl)phenyl]-1,2,4-oxadiazol-3-yl}benzyl)glycine]	–	7.38 nM	0.96 nM	8.95e-08 M	2.75e-07 M	470 nM	4.58e-10 M	–
COCc1cc(-c2nc(-c3cc(F)cc(CN(C)CC(=O)O)c3)no2)ccc1-c1ccccc1C [Example 20, N-(3-fluoro-5-{5-[2-(methoxymethyl)-2′-methylbiphenyl-4-yl]-1,2,4-oxadiazol-3-yl}benzyl)-N-methylglycine, hydrochloride salt]	–	5.33 nM	0.717 nM	1.73e-08 M	7.78e-08 M	59.9 nM	1.69e-10 M	% Lymphopenia in mouse at 48 h [6]: 72 ± 5%; Plasma AUD? [7]: 202.751 µg·h/mL; Lymph node/plasma ratio: 24 h ([7]; 24 h): 0.8; Lymph node/plasma ratio: 48 h ([7]; 48 h): 0.7; Kp ([7]; female, C57BL/6, brain, oral, 30 mg/kg, ratio of AUC, read-out: Brain/Plasma-Ratio: AUCZ (h*ng/ml)): 0.15; Cmax [7, 11]: 10300 ng/mL; Tmax [7, 11]: 4 h; half-life [7, 11]: 5.3 h; CL/F ([7]; female, C57BL/6, plasma, po, 30 mg/kg, read-out: Cl/F (L/kg/h) (Fz%)): 0.15 L/kg/h; Ki [5, 12]: 1.33e-09 M
COCc1cc(-c2nc(-c3cc(F)cc(CN(C)CCC(=O)O)c3)no2)ccc1-c1ccccc1C [Example 21, N-(3-fluoro-5-{5-[2-(methoxymethyl)-2′-methylbiphenyl-4-yl]-1,2,4-oxadiazol-3-yl}benzyl)-N-methyl-beta-alanine, hydrochloride salt]	–	4.52 nM	0.332 nM	1.13e-08 M	1.56e-08 M	15 nM	1.17e-10 M	Ki [5, 12]: 9.99e-10 M
